Activity calls are given as the source filed them. The calls are words filed in the database; no cut-off is given here.
Legend:
Assay type in all cases: functional
Homo sapiens [1] = organism: Homo sapiens; experiment: Antiangiogenic activity in human CD34-positive EPC assessed as suppression of capillary-like structure formation at 20 uM after 24 hrs by phase contrast microscopic method
Homo sapiens [2] = organism: Homo sapiens; experiment: Antiangiogenic activity in human CD34-positive EPC assessed as suppression of cell reorganization at 20 uM after 24 hrs by phase contrast microscopic method
Homo sapiens [3] = organism: Homo sapiens; experiment: Growth inhibition of human CD34-positive EPC at 10 uM after 48 hrs by SRB assay
SK-HEP1 = experiment: Growth inhibition of human SKHEP1 cells after 48 hrs by SRB assay; settings: SK-HEP1, 48 h
[4] = Antiangiogenic activity in human CD34-positive EPC assessed as suppression of capillary-like structure formation after 24 hrs by phase contrast microscopic method
PC-3 = experiment: Growth inhibition of human PC3 cells after 48 hrs by SRB assay; settings: PC-3, 48 h

Row | GI50 (SK-HEP1) [µM] | IC50 [4] [µM] | GI50 (PC-3) [µM] | Compound | Activity (Homo sapiens [1]) | Activity (Homo sapiens [2]) | growth inhibition (GI) (Homo sapiens [3])
1 | 4.3 | 14.3 | 6.6 | C=C(C)[C@@H](CC=C(C)C)C[C@]12C[C@@H](CC=C(C)C)C(C)(C)[C@](CC=C(C)C)(C1=O)C(O)=C(C(=O)c1ccccc1)C2=O | Active | Active | Active
2 | > 30 | 15.7 | 18.2 | C=C(C)[C@@H](CC=C(C)C)C[C@@]12C[C@@H](CC=C(C)C)C(C)(C)[C@]3(C=CC(C)(C)OC3=C(C(=O)c3ccccc3)C1=O)C2=O [GARCIMULTIFLORONE B] | Active | Active | Active
3 | 0.011 | – | 0.013 | CC(=O)O[C@H]1C(=O)[C@@]2(C)[C@H]([C@H](OC(=O)c3ccccc3)[C@]3(O)C[C@H](OC(=O)[C@H](O)[C@@H](NC(=O)c4ccccc4)c4ccccc4)C(C)=C1C3(C)C)[C@]1(OC(C)=O)CO[C@@H]1C[C@@H]2O [PACLITAXEL] | – | – | –
4 | > 30 | 16.5 | 24.8 | CC(C)=CCC1=C2OC(C)(C)[C@@H](CC=C(C)C)C[C@@]23C[C@@H](CC=C(C)C)C(C)(C)[C@@](C(=O)c2ccccc2)(C1=O)C3=O [GARCIMULTIFLORONE A] | Active | Active | Active

Source: ChEMBL document CHEMBL4219227, “Polyprenylated polycyclic acylphloroglucinol: Angiogenesis inhibitor from Garcinia multiflora” (Bioorg Med Chem Lett, 2018)
